Experimental data from patent US20130143825A1, “COMPOUNDS FOR USE IN THE TREATMENT OF DISEASES BASED ON THE EXPRESSION OF TOXIC TRANSCRIPTS” (UNIVERSITAT DE VALENCIA, priority 2010, published 2013).

How the values were obtained:
CUG60 RNA = test: Circular dichroism of CUG60 RNA; format: binding; details: RNA 1 μM, p10 0.1-20 μM, MblZF 1 and 1.5 μM, ppyawa 0.5 and 1 μM, payawe 1 μM
Description: However, this effect was not reverted when the RNA was incubated jointly with MblZF and p10, regardless of the order of addition (C).
In order to study possible changes in the secondary structure of RNA induced by p10, in the first place we performed a circular dichroism (CD) experiment, using an RNA with unlabelled CUG repeats (CUG60). The circular dichroism of nucleic acids is caused by the stacking of the bases that make up the sequence thereof. Consequently, when a molecule binds to RNA, affecting the structure thereof, a change is detected in its CD spectrum. […] When we incubated the RNA with increasing concentrations of the peptide of SEQ ID NO: 10 (0.1 μM, 0.5 μM, 1 μM, 10 μM and 20 μM), a similar effect was observed (FIG. 27B). During the readings, the RNA was kept in the cuvette inside the dichrograph at 10° C. Throughout the 3 hours of each experiment, it was possible for the RNA to have been degraded; this would explain the decrease in the intensity of the signal observed. In order to rule out this possibility, the CD spectrum of CUG60 RNA was measured at times 0 and 3 h, having kept the CUG60 RNA at 10° C. at all times.

2-AP-(CUG)23 RNA = test: 2-aminopurine fluorescence assay (hairpin opening); format: biochemical; details: peptide 100 μM, RNA 1 μM (1:100)
How it was run: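 2-AP-labelled (CUG)23 RNA (1 μM) was incubated with peptides at 100 μM (RNA:peptide 1:100), or with MblZF at 0.1–5 μM. 2-aminopurine emission at 375 nm is expressed relative to free RNA, with higher fluorescence indicating a shift from hairpin to single-stranded.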

FAM-(CUG)23 RNA = test: Fluorescence gel retardation assay with FAM-(CUG)23; format: binding; details: peptide 2.5 mM, RNA 60 nM
Source text: The changes on the RNA caused by p10 in the FP assay are small, probably due to the low molecular weight of the molecule (less than 900 Da). For this reason, it was decided to supplement the study with gel retardation experiments. These assays are based on the differences in electrophoretic mobility between stable protein-nucleic acid complexes and their components separately. Since the FAM-(CUG)23 RNA was available, it was decided to prepare a fluorescence gel retardation assay. After determining the optimal quantity of RNA for detection (60 nM; FIG. 21A), the binding between the latter and MblZF was studied. Said binding caused both a decrease in the intensity of the band corresponding to the free RNA in the gel and the appearance of a signal in the interior of the gel wells (bound RNA).
In order to determine whether p10 could bind to CUG RNA molecules, it was decided to perform a similar gel retardation experiment between the peptide and FAM-(CUG)23. p10 bound to the RNA, with part of the complex being retained in the well, as described for MblZF. […] This affinity decreased upon decreasing the size of the repeats (FAM-(CUG)4, FIG. 24C). […] This could be due either to a synergic effect between the protein and the peptide or to an additive effect if both should bind to different RNA sites.
In order to study the specificity of the binding observed between p10 and the CUG repeats, two experiments were performed. In the first place, the five hexapeptides generated during the alanine scanning were assayed. […] In the second place, we studied the effect of p10 on other RNA and DNA sequences, both double-stranded and single-stranded, fluorescently labelled with carboxyfluorescein (FAM) (FIG. 25C).

[1] = test system: 103Y-Gal4/+;UAS-CTG(480)/+ flies; test: Lethality phenotype in pupae caused by expression of 480 CTG under 103Y-Gal4 (females born); format: in vivo, Drosophila; details: administered to larvae in the food; compared with p10
Description: The 120 vials that make up the chemical library were individually assayed on the lethality phenotype in pupae caused by the expression of 480 CTG under the control of 103Y-Gal4 at a concentration of 80 μM. […] Thus, for positions O1, O2, O3, O4, O5 and O6 of the hexapeptide, a total of six, three, six, four, two and seven active amino acids were obtained, respectively (FIG. 2A). In order to perform the deconvolution, 10 of these 28 amino acids were selected, on the basis of their degree of activity in the biological assay (FIG. 2A). Finally, of the possible combinations, 16 sequences were selected to perform the synthesis of the defined hexapeptides (FIG. 2B). The selection of these 16 peptides was based on redundancy criteria between the physical and chemical properties of active amino acids in similar positions.
At 250 μM, the activity of the peptide decreased, possibly due to a toxic effect of the peptide at higher concentrations.
In order to determine the contribution of each of the p10 residues to their activity on CTG(480), an alanine scanning experiment was performed. These experiments are based on substituting every amino acid of the peptide with alanine and keeping the rest. Alanine is a small amino acid and, in general, not very active; this is why it is used for this type of studies. Since each alanine substitution examines the contribution of an individual amino acid, this experiment makes it possible, on the one hand, to evaluate whether p10 is susceptible to optimisation (in the event that a substitution increases the efficacy of the molecule), or to determine which amino acids are important for its function (in the event that a substitution decreases the activity thereof). The sequence of p10 allows for 5 substitutions; for this reason, 5 new hexapeptides were synthesised which were assayed in relation to the lethality phenotype in 103Y-Gal4; UAS-CTG(480)/+ flies and commercial food.

[2] = test system: AAG, CGG, CCUG and CAG repeats; test: Tryptophan extinction assay with repeats different from CUG; format: binding; details: RNA probe 5, 7.5, 10 μM (ppyawa: 10 μM)
Description: This figure illustrates an experiment which tested p10 and its capacity to bind to repeats different from CUG repeats, but which are also involved in diseases where the toxicity of RNAs with repeat expansions has been described. The tryptophan extinction assay was used, using (1) p10+AAG, CGG, CCUG and CAG at different RNA concentrations (5 μM, 7.5 μM and 10 μM).
On the other hand, as represented in FIG. 30, the peptides of the invention (particularly p10) have different binding affinities to hairpin loops formed by repeats other than CUG repeats, such as, for example AAG, CGG, CCUG and CAG. In this example, we tested p10 and its capacity to bind to repeats different from CUG repeats, but which are also involved in diseases where the toxicity of RNAs with long repeats has been described. […] Three assay points were used (3 different probe concentrations), with two measurements in each. The results were normalised to the signal offered by p10 alone. […] A single assay point is shown (probe at 10 μM). The results are shown non-normalised in order to be able to include the initial value of the peptides tested.

Substance: ppyawa
- change of circular dichroism spectrum of CUG60 (CUG60 RNA): did not occur
- change of circular dichroism spectrum of CUG60 (CUG60 RNA; listed as p29.1): did not change the RNA spectrum
- increase in the fluorescence emission of 2-AP-(CUG)23 (2-AP-(CUG)23 RNA): None of these peptides caused changes
- significant binding to FAM-(CUG)23 RNA (FAM-(CUG)23 RNA): None
- activity on lethality phenotype (number of females), alanine scanning [1]: loss of activity
- change of tryptophan fluorescence intensity in the presence of repeats [2]: increase in intensity
